According to patent US9540337B2, “Gamma-glutamyl transpeptidase inhibitors and methods of use” (The Board of Regents of the University of Oklahoma, priority 2012, dated 2017):
Where two headings read alike, the source gives them in different places. One block for each molecule: values may come before it.

Tests used:
[1] = Cytotoxicity in dividing 786-O cells (MTT assay, 72 hours); type: cell-based, human; settings: human, 786-o cells, dividing 786-O cells, 72 hours; read-out: LD50
Description: (§1) Cell Lines: 786-0 cells (ATCC CRL-1932), a human renal adenocarcinoma cell line, were grown in Dulbecco's Modified Eagle's Medium (DMEM) supplemented with 10% fetal bovine serum (FBS) and penicillin/streptomycin (50 units/ml, 50 μg/ml). NIH3T3 cells (ATCC CRL 1658) which are GGT-negative and NIH3T3 cells expressing hGGT [described previously were grown in DMEM/F12 media supplemented with 5% FBS and 0.2 mg/ml G418.
(§2) Cytotoxicity Assays: 786-0 cells were plated at 10^3 cells/well in a 96-well plate in DMEM supplemented with 10% FBS and penicillin/streptomycin (50 units/ml, 50 μg/ml). After 24 hours, the media was changed to fresh media containing OU749 analogs. A 100 mM stock of OU749 and each of its analogs were made in DMSO then diluted in DMEM. Control wells were treated with equivalent concentrations of DMSO. Cell viability was determined 72 hours after the addition of the inhibitors by the MTT assay. For the toxicity of the OU749 and its analogs in 786-0 cells, all determinations were done in triplicate. The LD50 of each compound and the standard deviation (S.D.) were calculated with a Prism log (inhibitor) versus normalized response (variable slope) curve fit (Prism, GraphPad Software Inc., San Diego, Calif.).

[2] = system: 786-0 cells; assay: as above; type: cell-based, human; settings: LD50 ratio, 786-O cells
Description: as §1, §2

[3] = molecular target: T1, Human GGT1 (hGGT) (Homo sapiens, UniProt P19440); assay: L-GpNA Transpeptidation Assay with GlyGly as acceptor; type: biochemical; set-up: lacking the transmembrane domain; made in house; host or cells: Pichia pastoris
T1 sequence (P19440 381-569 limits assumed): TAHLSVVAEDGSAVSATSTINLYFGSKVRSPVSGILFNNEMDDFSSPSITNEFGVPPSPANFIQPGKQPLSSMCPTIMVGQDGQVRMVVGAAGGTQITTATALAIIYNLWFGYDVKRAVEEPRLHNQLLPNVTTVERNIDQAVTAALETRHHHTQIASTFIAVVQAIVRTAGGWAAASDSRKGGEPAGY
T1 sequence (P19440 27-380 limits assumed): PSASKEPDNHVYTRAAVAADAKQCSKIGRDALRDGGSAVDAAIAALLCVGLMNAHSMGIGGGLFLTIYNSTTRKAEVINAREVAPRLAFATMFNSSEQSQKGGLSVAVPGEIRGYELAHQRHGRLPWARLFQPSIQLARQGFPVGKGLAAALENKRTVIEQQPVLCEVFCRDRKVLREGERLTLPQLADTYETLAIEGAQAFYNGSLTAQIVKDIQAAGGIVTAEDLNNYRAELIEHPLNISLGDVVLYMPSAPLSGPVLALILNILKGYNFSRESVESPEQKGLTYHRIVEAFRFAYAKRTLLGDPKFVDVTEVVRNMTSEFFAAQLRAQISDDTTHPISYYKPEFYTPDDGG
Description: Transpeptidation Reaction: The same assay buffer was used for both the hydrolysis reaction and the transpeptidation reaction. The transpeptidation reaction included 40 mM glycylglycine (glygly, Sigma, St. Louis, Mo.) as the acceptor. […] The concentration of L-GpNA was 3 mM for experiments in which the concentration of glygly was varied. To initiate the transpeptidation reaction, 4 mU GGT were added.
1. […] 3 and 4. […] 5 (25).
L-GpNA Transpeptidation Assay: The assay has been described previously. […] The concentration of L-GpNA was 3 mM for experiments in which the concentration of GlyGly was varied. To initiate the transpeptidation reaction, 4 mU GGT were added.

[4] = molecular target: T1, Human GGT1 (hGGT); assay: D-GpNA Hydrolysis Assay (release of pNA, 405 nm, pH 7.4)
Description: (§3) Enzyme Isolation: Human GGT1 (P19440), lacking the transmembrane domain, was expressed in Pichia pastoris and isolated as previously described (14). […] One unit of GGT activity was defined as the amount of enzyme that released 1 μmol of paranitroaniline/min at 37° C. at pH 7.4 in the transpeptidation reaction.
The reaction was initiated with the addition of 19 mU GGT. The reaction was incubated at 37° C. and monitored continuously at 405 nm by a Bio-Rad model 680 microplate reader with Microplate Manager 5.2 software (Bio-Rad, Hercules, Calif.).
Data Analysis: Samples in each experiment were run in triplicate. Each inhibitor was evaluated in two or more independent experiments. Double reciprocal plots were generated to assess data quality and determine the correct rate equation for data fitting. Data were fitted using the proper rate equation and the Marquardt-Levenberg algorithm supplied with the Enzfitter program (BIOSOFT, Cambridge, UK). Kinetic parameters with standard errors were estimated using a simple weighting method.
Data adhering to Michaelis-Menten Kinetics were fitted to eq. 1. Data for initial rate patterns with D-, L-GpNA varied at different fixed levels of glygly were fitted to eq. […] Data for competitive and uncompetitive inhibition were fitted to eqs. 3 and 4. Data for the dependence of Vmax and Vmax/KD-GpNA on the concentration of activator were fitted using eq. 5 (25).
In eqs 1-6, Vmax are the initial and maximum rates, respectively, Ka and Kb are Michaelis constants for substrates A and B, respectively, and Kis and Kii are slope and intercept inhibition constants. In eq. 5, a is the value of Vmax or Vmax/KD-GpNA at zero activator/inhibitor, KID is the activation or inhibition constant, and KIN is a constant that causes the parameter to go to a constant value at infinite concentrations of X, the activator/inhibitor. The product a(KID/KIN) is the value of Vmax or Vmax/KD-GpNA at infinite activator/inhibitor (25). Data for noncompetitive inhibition were fitted to eq. 6. Data for the dependence of Vmax and Vmax/KD-GpNA on the concentration of activator were fitted using […].
as §3, with “hGGT” for “Human GGT1”, “described.” for “described (14).”, “reaction with L-GpNA.” for “reaction.”
D-GpNA Hydrolysis Assay: The assay was carried out as previously described. […] The reaction was initiated with the addition of 19 mU GGT as determined by the L-GpNA transpeptidation assay. The reaction was incubated at 37° C. and monitored continuously at 405 nm.

[5] = molecular target: T2, hGGT (Homo sapiens, UniProt P19440); assay: L-Glutamate Release Assay (Hydrolysis of GSH); type: biochemical; settings: for Ki: GSH hydrolysis, read-out: GSH Kii
T2 construct: lacking the transmembrane domain; made in house; host or cells: Pichia pastoris
T2 sequence (P19440 381-569 limits assumed): as the sequence (P19440 381-569 limits assumed) above
T2 sequence (P19440 27-380 limits assumed): as the sequence (P19440 27-380 limits assumed) above
Description: L-Glutamate Release Assay (Hydrolysis of GSH): This assay measures the production of glutamate from the hydrolysis of GSH by GGT enzyme and has been described in detail previously. The concentration of the substrate, GSH, was varied from 5 μM to 20 μM. The concentration of the inhibitors, OU749 and its analogs, were varied from 15.6 μM to 250 μM. The reaction was initiated with the addition of 10 mU hGGT. […] All compounds were also evaluated as inhibitors of glutamate dehydrogenase, the enzyme in the second half of the L-glutamate release assay. None of the compounds in this study inhibited glutamate dehydrogenase.

[6] = molecular target: T3, Human GGT1 (Homo sapiens, UniProt P19440); assay: Initial rate studies with D-GpNA and L-GpNA, with or without acceptor GlyGly; type: biochemical; settings: for second order rate constant: rounded in discussion; for fold increase of Vmax in the presence of GlyGly: plus vs minus GlyGly
T3 construct: lacking the transmembrane domain; made in house; host or cells: Pichia pastoris
T3 sequence (P19440 381-569 limits assumed): as the sequence (P19440 381-569 limits assumed) above
T3 sequence (P19440 27-380 limits assumed): as the sequence (P19440 27-380 limits assumed) above
Description: Transpeptidation Reaction: The same assay buffer was used for both the hydrolysis reaction and the transpeptidation reaction. The transpeptidation reaction included 40 mM glycylglycine (glygly, Sigma, St. Louis, Mo.) as the acceptor. The concentration of the substrate for the transpeptidation reaction, L-GpNA (Sigma) was varied from 0.25 mM to 3 mM. The concentration of L-GpNA was 3 mM for experiments in which the concentration of glygly was varied. To initiate the transpeptidation reaction, 4 mU GGT were added.
1. […] 2, which describes a ping pong kinetic mechanism. […] 3 and 4. […] 5 (25).
In eq. […] Data for noncompetitive inhibition were fitted to eq. 6. […] 6 [25].
Initial Rate Studies with D-GpNA and L-GpNA: In this study, the inhibition of both the GGT hydrolysis and transpeptidation reactions by OU749 and a new series of thiadiazol sulfonamide analogs was studied. The hydrolysis and transpeptidation reactions were analyzed separately by using different stereo-isomers of the γ-glutamyl-p-nitroanilide (GpNA) substrate. The kinetics of both reactions were first characterized in the absence of inhibitors. Cleavage of the γ-glutamyl bond of either D-GpNA or L-GpNA releases p-nitroanaline, which has an OD405 of 7,680 M^−1 cm^−1, allowing for the reactions to be monitored continuously with high sensitivity. The D-glutamyl isomer of GpNA was used as the substrate for the hydrolysis reaction, in which water serves as the acceptor. The L-glutamyl isomer of GpNA, with glycylglycine (GlyGly) as an acceptor, was used for the transpeptidation reaction. L-GpNA can serve as both a substrate and a low affinity acceptor, while D-GpNA is unable to serve as an acceptor (18, 21, 26). Therefore, in the absence of an added acceptor GGT exclusively catalyzes a hydrolysis reaction with D-GpNA as the substrate. When L-GpNA is used as a substrate, the GGT reaction is a mixture of both the hydrolysis and transpeptidation reactions. Under these conditions, the rate of the reaction is the sum of hydrolysis and transpeptidation reactions, with the hydrolysis reaction contributing more at low L-GpNA concentrations and transpeptidation dominating at saturating substrate concentrations. […] However, the maximum rate (Vmax) obtained with L-GpNA was approximately 3-times faster than that measured with D-GpNA, and the KGpNA for L-GpNA was 5-times higher than that measured for D-GpNA. This is at least partially due to the ability of L-GpNA to serve as an acceptor, resulting in a transpeptidation reaction, which is faster than the hydrolysis reaction. Therefore, to study the hydrolysis reaction in isolation, D-GpNA was used as the substrate without any added acceptor.

[7] = Table 5, read-out: GlyGly with L-GpNA Kis
[8] = Table 5, read-out: L-GpNA with GlyGly Kii

SMILES: COc1ccc(Cc2nnc(NS(=O)(=O)c3cccc(Cl)c3)s2)cc1 [Compound 3]
- CC50 at 72 h [1]: 382 µM
- fold less toxic (cytotoxic) than OU749 [2]: 3 fold
- Ki ([3]; GlyGly varied, 3 mM L-GpNA, Table 2, read-out: Transpeptidation GlyGly Kis): 11.9 ± 1.1 µM
- Ki ([3]; L-GpNA varied, 40 mM GlyGly, Table 2, read-out: Transpeptidation L-GpNA Kii): 22 ± 0.7 µM
- Ki [4]: 74.9 ± 2.2 µM
- Ki ([5]; Table 6): 67 ± 6 µM
- fold more potent than OU749 in inhibiting GSH hydrolysis ([5]; relative to OU749): 5.6 fold

SMILES: Cc1ccc(Cc2nnc(NS(=O)(=O)c3ccc(N)cc3)s2)cc1 [Compound 22]
- CC50 at 72 h [1]: 727 ± 0.02 µM
- Ki [3, 7]: 6 ± 1 µM
- Ki [3, 8]: 30 ± 4 µM
- Ki [4]: 31 ± 1 µM
- Ki ([5]; Table 5): 82 ± 13 µM

SMILES: CN(C)c1ccc(Cc2nnc(NS(=O)(=O)c3ccc(N)cc3)s2)cc1 [Compound 27]
- Ki [3, 7]: 24 ± 4 µM
- Ki [3, 8]: 275 ± 12 µM
- Ki [4]: 180 ± 5 µM
- Ki ([5]; Table 5): 363 ± 35 µM

SMILES: Nc1ccc(S(=O)(=O)Nc2nnc(Cc3ccc(Cl)cc3)s2)cc1 [Compound 28]
- Ki [3, 7]: 7 ± 1 µM
- Ki [3, 8]: 54 ± 1 µM
- Ki [4]: 56 µM
- Ki ([5]; Table 5): 419 ± 27 µM

SMILES: Nc1ccc(S(=O)(=O)Nc2nnc(Cc3ccc(Cl)c(Cl)c3)s2)cc1 [Compound 29]
- decrease of Kis as competitive inhibitor of GlyGly relative to OU749 [3]: up to 11 fold
- Ki [3, 7]: 5 ± 1 µM
- Ki [3, 8]: 34 ± 4 µM
- Ki [4]: 32 ± 1 µM
- Ki ([5]; Table 5): 905 ± 53 µM

Other lines, results leading:

- Ki ([3]; Table 6, read-out: GlyGly with L-GpNA Kis): 143 ± 20 µM
- Ki ([3]; Table 6, read-out: L-GpNA with GlyGly Kii): 364 ± 43 µM
- Ki [4]: 415 ± 50 µM
- Ki ([5]; Table 6): 206 ± 37 µM
- fold less potent than Compound 6 in inhibiting catabolism of GSH ([5]; relative to Compound 6): 2.1 fold
SMILES: COc1ccc(Cc2nnc(NS(=O)(=O)c3ccc4ccccc4c3)s2)cc1 [Compound 30]

- V ([6]; minus acceptor): 2.1 ± 0.2 mM/min/nM
- V/KGpNA ([6]; minus acceptor): 2.2e+08 ± 1.7e+06 M⁻¹ s⁻¹
- second order rate constant ([6]; minus acceptor): 2.17e+08 M⁻¹ s⁻¹
- KGlyGly ([6]; plus acceptor GlyGly): 7.0 ± 0.3 mM
- V ([6]; plus acceptor GlyGly): 53 ± 11 mM/min/nM
- V/KGlyGly ([6]; plus acceptor GlyGly): 1.27e+08 ± 2.5e+07 M⁻¹ s⁻¹
- V/KGpNA ([6]; plus acceptor GlyGly): 2.12e+08 ± 4.17e+07 M⁻¹ s⁻¹
- fold increase of Vmax in the presence of GlyGly [6]: 25 fold
SMILES: N[C@H](CCC(=O)Nc1ccc([N+](=O)[O-])cc1)C(=O)O [D-GpNA, D-gamma-glutamyl para-nitroanalide]

- Ki ([6]; absence of GlyGly, read-out: Kis of GSH vs L-GpNA): 73 ± 6 µM
- Ki ([3]; in the presence of 3 mM L-GpNA, read-out: Kii of GSH vs GlyGly): 3000 ± 500 µM
- Ki ([3]; in the presence of 3 mM L-GpNA, read-out: Kis of GSH vs GlyGly): 800 ± 100 µM
- Ki ([3]; in the presence of 40 mM GlyGly, read-out: Kii of GSH vs L-GpNA): 1700 ± 20 µM
- Ki ([3]; in the presence of 40 mM GlyGly, read-out: Kis of GSH vs L-GpNA): 1400 ± 10 µM
- Ki [4]: 10 ± 1.2 µM
SMILES: N[C@@H](CCC(=O)N[C@@H](CS)C(=O)NCC(=O)O)C(=O)O [GSH, glutathione, reference compound]

- KGpNA relative to D-GpNA ([6]; minus acceptor): 5 times
- V ([6]; minus acceptor): 6.5 ± 0.2 mM/min/nM
- V/KGpNA ([6]; minus acceptor): 1.3e+08 ± 3.3e+06 M⁻¹ s⁻¹
- second order rate constant ([6]; minus acceptor): 1.3e+08 M⁻¹ s⁻¹
- KGlyGly ([6]; plus acceptor GlyGly): 9.9 ± 0.9 mM
- V ([6]; plus acceptor GlyGly): 141 ± 11 mM/min/nM
- V/KGlyGly ([6]; plus acceptor GlyGly): 2.33e+08 ± 1.7e+07 M⁻¹ s⁻¹
- V/KGpNA ([6]; plus acceptor GlyGly): 1.95e+09 ± 1.5e+08 M⁻¹ s⁻¹
- fold increase of Vmax in the presence of GlyGly [6]: 22 fold
SMILES: N[C@@H](CCC(=O)Nc1ccc([N+](=O)[O-])cc1)C(=O)O [L-GpNA, L-gamma-glutamyl para-nitroanilide]
